This experiment concerns the target NK1 receptor (Homo sapiens, UniProt P25103). The experiment in a line: NK1 receptor binding: inhibition of Substance P binding, Ki from the 50% inhibition concentration. Particulars: average Ki for the NK1 receptor. The source says:
Compounds having the formula (I) can be effective antagonists of the NK1 receptor, and of an effect of its endogenous agonist, Substance P, at the NK1 receptor site, and therefore, can be useful in treating conditions caused or aggravated by the activity of said receptor. The in vitro and in vivo NK1, NK2 and NK3 activities of the compounds having the formula (I) can be determined by various procedures known in the art, such as a test for their ability to inhibit the activity of the NK1 agonist Substance P. The percent inhibition of neurokinin agonist activity is the difference between the percent of maximum specific binding (“MSB”) and 100%. The percent of MSB is defined by the following equation, wherein “dpm” represents “disintegrations per minute”:
[formula] The concentration at which the compound produces 50% inhibition of binding is then used to determine an inhibition constant (“Ki”) using the Chang-Prusoff equation.
The activities (potencies) for the compounds of the invention are determined by measuring their Ki values. […] Even more preferred are compounds having average Ki values of from 0.01 nM to about 10 nM for the NK1 receptor. The most preferred compounds have NK1 average Ki values of from 0.01 nM to about 3 nM.
NK1 receptor, sequence (P25103 whole entry, species assumed): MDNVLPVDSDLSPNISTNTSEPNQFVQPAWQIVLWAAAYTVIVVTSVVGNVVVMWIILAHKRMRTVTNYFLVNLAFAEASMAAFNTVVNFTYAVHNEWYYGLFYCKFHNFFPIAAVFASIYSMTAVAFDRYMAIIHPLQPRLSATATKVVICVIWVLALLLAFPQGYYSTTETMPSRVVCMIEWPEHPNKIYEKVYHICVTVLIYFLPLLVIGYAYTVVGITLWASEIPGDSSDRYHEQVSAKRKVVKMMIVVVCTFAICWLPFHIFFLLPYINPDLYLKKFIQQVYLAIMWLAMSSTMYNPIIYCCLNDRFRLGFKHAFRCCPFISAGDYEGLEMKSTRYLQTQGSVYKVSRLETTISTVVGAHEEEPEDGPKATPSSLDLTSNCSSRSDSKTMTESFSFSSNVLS
For the molecule `C[C@@H](OC[C@@]1(c2ccccc2)CC[C@]2(CN1)NC(=O)NC2=O)c1cc(C(F)(F)F)cc(C(F)(F)F)c1` [Example 43b], the affinity, expressed as Ki, was 0.77 nM.
Turning to `C[C@@H](OC[C@@]1(c2ccccc2)CC[C@]2(CCCC(=O)N2)CN1)c1cc(C(F)(F)F)cc(C(F)(F)F)c1` [Example 110a], the Ki (in general, a measure of affinity in units of concentration, obtained from inhibition or displacement) stood at 0.41 nM.
As to `C[C@@H](OC[C@@]1(c2ccccc2)CC[C@]2(CCOC(=O)N2)CN1)c1cc(C(F)(F)F)cc(C(F)(F)F)c1` [Example 111a], the Ki was found to be 0.38 nM.
In turn, `C[C@@H](OC[C@@]1(c2ccccc2)CC[C@@]2(CN1)COC(=O)N2)c1cc(C(F)(F)F)cc(C(F)(F)F)c1` [Example 73b] registered a Ki of 0.2 nM.
The molecule `C[C@@H](OC[C@@]1(c2ccccc2)CC[C@]2(CCC(=O)N2)CN1)c1cc(C(F)(F)F)cc(C(F)(F)F)c1` [Example 72a] returned a Ki of 0.66 nM.
In turn, `C[C@@H](OC[C@@]1(c2ccccc2)CC[C@H](n2cn[nH]c2=O)CN1)c1cc(C(F)(F)F)cc(C(F)(F)F)c1` [Example 109] registered a Ki of 0.1 nM.
